Columns and labels:
[1] = test system: kaolin-induced inflammation in the hind paw; assay: Kaolin model of acute inflammatory pain, lameness score; type: in vivo, dog
Procedure: Kaolin-induced inflammation in the hind paw was performed based on the model described in “Paw inflammation model in dogs for preclinical pharmacokinetic/pharmacodynamic investigations of nonsteroidal anti-inflammatory drugs” (Jeunesse et al., 2011, J Pharmacol Exp Ther., 338 (2): 548-58). Briefly, the dogs were anaesthetized with an intravenous administration of propofol (Propovet, 6.5 mg/kg, Zoetis, France) and kaolin was injected subcutaneously on one paw. On D42, the injections were performed on the right hind paw of all dogs.
Lameness score was assessed on a typical course made by each dog using a numerical rating scale initially developed by Giraudel et al. (Giraudel J M et al., 2005, Br J Pharmacol 146:642-653; Giraudel J M et al., 2005, J Vet Pharmacol Ther 28:275-285) on cats and adapted by Jeunesse et al. (Jeunesse et al., 2011, J Pharmacol Exp Ther., 338 (2): 548-58). […] Lameness score was assessed on live and separately on videos by a different operator. […]

[2] = Processability of VLPs by anion exchange chromatography (aggregation by NAGE); type: physicochemical; conditions: DEAE resin, pH 9.0, NaCl elution
Procedure: To test the processability of prior art CMV-Ntt830 VLPs with anion exchange chromatography (AEX), sucrose gradient purified VLPs were prepared as described in Examples 2-4 of WO2016/062720A1. Five mls of CMV-Ntt830 VLPs (1 mg/ml) were buffer exchanged into 5 mM sodium borate pH 9 and loaded onto a 1.0 ml Macro-Prep DEAE Bio-Rad anion exchange cartridge equilibrated with the same buffer. After the loading step, the concentration of NaCl in the elution buffer was increased in step-wise manner (0.1, 0.2, 0.3, 0.4, 0.5, 0.8., 1.0 and 2.0 M). Fractions were collected and measured at 260 nm using Nanodrop spectrophotometer to measure protein and subjected to native agarose gel electrophoresis (NAGE).
In contrast, non-aggregated CMV-Ntt830-E4 VLPs could be readily purified from a crude lysate using AEX. Clarified lysate prepared from E. coli expressing CMV-Ntt830-E4 VLPs (as described in Example 1) in 50 mM citrate, 5 mM Borate buffer pH 9.0 was loaded onto 60 ml of Fracto-DEAE (Merck) in an XK 26/20 column equilibrated with the same buffer and eluted by applying a continuous NaCl gradient from 0 to 1.0 M in the same buffer. The eluate was monitored at A260 nm to measure protein and conductivity measured to monitor salt concentration. The clarified lysate, flow-through and fractions were collected and subjected to NAGE and SDS-PAGE.

[3] = Thermal shift assay with SYPRO Orange (thermal stability of VLPs); type: physicochemical; conditions: 0.5 mg/ml VLPs in 5 mM Na phosphate, 2 mM EDTA, pH 7.5, real-time PCR system
Procedure: A thermal shift assay involving temperature-induced denaturation and the fluorescent dye SYPRO® Orange (Sigma, Saint Louis, USA) was used for this purpose. The dye is a naturally quenched in solution but as the VLPs denature with increasing temperatures, SYPRO® Orange interacts with exposed hydrophobic amino acids and cores and emits a fluorescent signal, which is measured by fluorometry. From the resultant melting curve (fluorescent signal vs temperature), the melt peak curves and melting temperature were determined. Solutions containing 0.5 mg/ml of sucrose density gradient purified (as described in Example 1 above) CMV-Ntt830 VLPs or CMV-Ntt830-E4 VLPs in 5 mM Na phosphate, 2 mM EDTA, pH 7.5 were assayed with a real-time PCR system MJ Mini (Bio-Rad, Hercules, USA) using a DNA melting point determination program. Data were analysed using Opticon Monitor Software and melting curves processed at a smooth setting of four.

[4] = Ionic strength/salt stability of VLPs in NaCl, native agarose gel electrophoresis; type: physicochemical; conditions: NaCl concentrations up to 0.4 M, room temperature, 0.5 mg/ml, pH 7.5
Procedure: FIG. 12: Stability of CMV-Ntt830 VLPs and CMV-Ntt830-E4 VLPs in solution in the presence of different NaCl concentrations. Samples of CMV-Ntt830 VLPs and CMV-Ntt830-E4 VLPs at 0.5 mg/ml were incubated at room temperature in 5 mM Na phosphate, 2 mM EDTA, pH 7.5 with different concentrations of NaCl (the molar concentration of NaCl in each sample is indicated at the bottom of the gels) for up to 2 hours. Samples were analysed by native agarose gel electrophoresis and ethidium bromide staining. Panels A and B show NAGE analysis of CMV-Ntt830 VLP and CMV-Ntt830-E4 VLPsamples respectively. […] Black arrows indicate the position of loading wells within the gels and location of VLPs within the wells and gels. The presence of CMV-Ntt830 VLPs in the loading wells after electrophoresis (panel A) is due to the formation of VLP aggregates which are too large to enter the gel. Integral unaggreagted VLPs migrated into the gel.
The relative stabilities of CMV-Ntt830 VLPs and CMV-Ntt830-E4 VLPs to NaCl were tested by incubating purified VLPs (0.5 mg/ml in 5 mM Na phosphate, 2 mM EDTA, pH 7.5) at room temperature with various NaCl concentrations.

[5] = target: human beta-NGF (Homo sapiens, UniProt P01138); assay: TF-1 cell based NGF neutralization bioassay, kaolin study
Procedure: (§1) The range of the actual doses of bedinvetmab administered was 0.52-0.97 mg/kg in line with the product information of the marketing authorization. • For the Vaccine group, the dogs received the inventive vaccine candidate, cNGF-CMV-Ntt830-E4 VLP, twice subcutaneously at the back of the neck on day 0 (DO) and day 21 (D21) at the dose of 250 μg VLP-NGF/dog.
Heat-inactivated (56° C. 30 min), serial-diluted sera or antibody standard (canonized monoclonal anti-canine NGF antibody bedinvetmab, Zoetis) were incubated with 5 ng/mL human beta-NGF for 1 hour at room temperature. The NGF-sera/antibody solution was then added to […] starved overnight of growth factors. Cell viability was quantified over the last 7 hour period of a total 72 hour incubation period using the CellTiter 96 AQueous One Solution Cell Proliferation Assay reagent (Promega). Absorbance was measured using a microplate reader (TecanSpark) at a wavelength of 490 nm and a reference wavelength of 700 nm. Titration curves were generated by plotting the difference in absorbance (490 nm-700 nm) versus the dilution factor of the serum sample. Using a 4-Parameter logistic regression curve fit model the IC50 values, the dilution factor corresponding to half maximum OD values, were determined. Serum titers of samples at different time points were defined and depicted as the IC50 values of the curve fit. […]

[6] = test system: canine NGF protein; assay: NGF total IgG ELISA in dog sera, kaolin study (Example 7); type: in vivo; conditions: study day 42; vaccine 250 μg s.c. D0 and D21; bedinvetmab s.c. once D35
Procedure: as §1
Blood samples for serology were collected at the following time points on DO, D21, D70, D84, D105 and D119 for the Vaccine and the Placebo groups only, on D35 for the Librela® group only, on D42 and on D56 for the three group. Blood samples were centrifuged and the serum decanted into three aliquots per sample.
NGF- and cNGF-CMV-Ntt830-E4 VLP total specific IgG antibodies in sera were measured by ELISA. ELISA plates were coated with recombinantly produced canine NGF protein (1.0 μg/mL) or cNGF-CMV-Ntt830-E4 VLP (2.0 μg/mL). Serum samples were pre-diluted 1:100, transferred to the ELISA plates and subjected to serial dilutions 3-fold serial dilution steps with a total of 11 dilutions being tested per serum sample. […] Relative concentrations of anti-NGF IgG antibody in the serum (μg/mL) were calculated by multiplying the EC50 values of the serum with the EC50 values determine for the Bedinvetmab standard. […]

[7] = test system: canine NGF protein; assay: NGF total IgG ELISA in dog sera, ACLT+PMM chronic pain study (Example 8); type: in vivo; conditions: day 203 sera, group B, monthly s.c. administration
Procedure: NGF- and cNGF-CMV-Ntt830-E4 VLP total specific IgG antibodies in sera were measured by ELISA. ELISA plates were coated with recombinantly produced canine NGF protein (1.0 μg/mL) or cNGF-CMV-Ntt830-E4 VLP (2.0 μg/mL). Serum samples were pre-diluted 1:100, transferred to the ELISA plates and subjected to serial dilutions 3-fold serial dilution steps with a total of 11 dilutions being tested per serum sample. Following incubation, horse-radish peroxidase-(HRP-) labelled goat anti-dog IgG (Jackson ImmunoResearch, cat no 304-035-008, lot 156911) was added. After 2 hours incubation at room temperature, the plates were washed 4 times with 1×PBS/0.05% (v/v) Tween 20. […] Serum titers of samples at different time points were defined and depicted as the EC50 values of the curve fit. Titers below the detection limit of the assay were set to 100 for anti-CMV IgG respectively 50 for anti-NGF IgG, half of the lowest dilution factor (1:200 respectively 1:100) used in the assay. Bedinvetmab was used as a standard in the NGF IgG ELISA. Relative concentrations of anti-NGF IgG antibody in the serum (μg/mL) were calculated by multiplying the EC50 values of the serum with the EC50 values determine for the Bedinvetmab standard. Neutralization titers below the detection limit of the assay were set the equivalent monoclonal antibody concentration of the EC50 value of 50. […]

[8] = in vivo; cited from earlier work
[9] = target: T1, hNGF binding to TrkA (Homo sapiens, UniProt P01138); assay: TrkA based NGF binding ELISA, ACLT+PMM study; type: biochemical; conditions: day 203, group B, 6 days after administration
T1 construct: 5 ng/ml human mature NGF (R&D, 256-GF-100/CF); purchased R&D (hNGF); SinoBio (TrkA) 256-GF; 11073-H08H
Procedure: ELISA plates were coated with 100 μL/well of 0.5 μg/mL TrkA (SinoBio 11073-H08H) in PBS over night at +4° C. After washing with PBST, plates were blocked using 200 μL/well SuperBlock (ThermoScientific 37518) for 1 hour at room temperature. Serum samples or positive control antibody (caninized monoclonal anti-canine NGF antibody bedinvetmab, Zoetis) were diluted in 2% BSA/PBST and incubated with 1.25 ng/ml hNGF (R&D 256-GF) for 1 hour. After washing the ELISA plates, serum/NGF solution was added to the plates. Plates were incubated for 1 hour at room temperature, washed and HRP-labelled rabbit anti-NGF antibody (SinoBio 11050-RP02-H) at a concentration of 1.5 μg/mL was added. After the plates were washed 4 times with 1×PBS/0.05% (v/v) Tween 20, TMB substrate (ThermoScientific 3401) as the HRP substrate and development reaction was stopped by addition of 2M H2SO4. OD values at 450 nm were measured using a microplate reader (TecanSpark). […] Using a 4-Parameter logistic regression curve fit model the IC50 values, the dilution factor corresponding to half maximum OD 450 nm values, were determined. […] Relative concentrations of neutralizing antibody in the serum (μg/mL) were calculated by multiplying the IC50 values of the serum with the IC50 values determine for the bedinvetmab standard (μg/mL). […]

[10] = test system: PC12 cells; assay: Neurite outgrowth bioassay for authenticity of recombinant NGF; type: cell-based; conditions: 5 days, 6.25-100 ng/ml NGF
Procedure: FIG. 15B: PC12 cells were grown for 5 days with recombinant human mature NGF produced in mouse myeloma cells (R&D systems) (black squares) or with canine mature NGF produced in E. coli as described herein (grey circles). Cells were grown in the presence of 100, 50, 25, 12.5 and 6.25 ng/ml of recombinant NGF and the percentage of cells with defined neurite outgrowth determined.

Chain of human beta-NGF (P01138 122-241): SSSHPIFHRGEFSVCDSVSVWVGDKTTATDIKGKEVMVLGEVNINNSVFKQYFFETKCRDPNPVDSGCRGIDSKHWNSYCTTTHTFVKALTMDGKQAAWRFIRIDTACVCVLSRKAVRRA
T1 sequence (P01138 122-241): as above

Cc1cnc(NC(=O)C2=C(O)c3ccccc3S(=O)(=O)N2C)s1 [Inflacam®, meloxicam]
mean lameness score as compared to the Placebo group ([1]; one day after kaolin-induced inflammation, 0.2 mg meloxicam/kg s.c. D43): reduced

CMV-Ntt830-E4 VLPs: modified CMV VLP of chimeric CMV polypeptide SEQ ID NO:10, four glutamic acid residues (E4) inserted into CMV-Ntt830
aggregated VLPs after anion exchange chromatography (NAGE loading wells) [2]: no evidence of aggregated VLPs
melting temperature (melting point) [3]: ~57 °C
aggregate formation in presence of NaCl [4]: no evidence of aggregate formation

bedinvetmab
peak NGF neutralizing titers ([5]; study day 42, study group 1): 3.93 µg/mL
dogs with levels below the detection limit of the TF-1-based NGF neutralization assay ([5]; study day 56, 21 days after administration): 6 of 7
NGF-specific IgG GMT (standard equivalent concentration), peak [6]: 3.68 µg/mL
NGF-specific IgG GMT [7]: 10.9 µg/mL
mean titers (dashed line FIG. 24B) [8]: 1 µg/mL
peak antibody titer in serum after administration of bedinvetmab [8]: 6.1 µg/mL
mean AUC for lameness scores ([1]; 14 days post kaolin challenge, 7 dogs/group): 15.36
NGF neutralizing antibody titers [9]: 7.85 µg/mL

B1: canine mature NGF: recombinant canine mature NGF (SEQ ID NO:30) produced in E. coli, with C-terminal GCG motif (SEQ ID NO:31) or His-tag (SEQ ID NO:33) (protein)
chain: SSSHPVFHRGEFSVCDSVSVWVGDKTTATDIKGKEVMVLGEVNINNSVFKQYFFETKCRDPTPVDSGCRGIDSKHWNSYCTTTHTFVKALTMDGKQAAWRFIRIDTACVCVLSRKAGRRAG
modifications: C-terminal GCG motif or His-tag
activity at inducing neurite outgrowth compared with commercial mature NGF (R&D systems) [10]: similarly active
